Reference: US5583224A, “Isolation and elucidation of cephalostatin 7, 8 and 9” (Arizona Board of Regents acting on behalf of Arizona State …, priority 1993, dated 1996)

How the values were obtained:
[1] = test system: P388 lymphocytic leukemia cell line; conditions: first chemical study, Pettit et al., J. Am. Chem. Soc 1988; cited from earlier work
[2] = test system: panel of 60 human tumor cell lines; experiment: NCI standard human tumor cell line panel (60 cell lines); type: cell-based; conditions: for activity against human cancer cell lines: panel of human cancer cell lines employed by NCI
Description: Current research in the control of cancer in the United States is coordinated by the National Cancer Institute (NCI). To determine whether a substance has anti-cancer properties, the NCI has established a systematic protocol. […] The protocol, and the established statistical means for analyzing the results obtained by the standardized testing are fully described in the literature. See: Boyd, Dr. Michael R., Principles & Practice of Oncology, PPO Updates, Volume 3, Number 10, Oct. 1989, for an in depth description of the testing protocol; and Paull, K. D., "Display and Analysis of Patterns of Differential Activity of Drugs Against Human Tumor Cell Lines; Development of Mean Graph and COMPARE Algorithm", Journal of the National Cancer Institute Reports, Vol. 81, No. 14, Page 1088, Jul. 14, 1989 for a description of the methods of statistical analysis. Both of these references are incorporated herein by this reference thereto.

[3] = test system: P388 lymphocytic leukemia cell line; experiment: P388 lymphocytic leukemia (PS) cell line growth inhibition in vitro; type: cell-based, murine

| Compound | P388 ED50 [1] | activity against other NCI cell lines ([2]; other NCI cell lines) | activity against human cancer cell lines [2] | activity against human cancer cell lines ([2]; listed as cephalostatin 9) | activity against murine P388 lymphocytic leukemia (PS system) [3] |
| --- | --- | --- | --- | --- | --- |
| C[C@@H]1[C@]2(O[C@H]3C=C4[C@@H]5CC[C@H]6Cc7nc8c(nc7C[C@]6(C)[C@H]5C[C@@H](O)[C@]4(C)[C@]31O)C[C@@H]1CC[C@H]3C4=CC[C@@H]5[C@H](C)[C@@]6(OC[C@]45C(=O)C[C@@H]3[C@@]1(C)C8)OC(C)(C)C[C@H]6O)O[C@](C)(CO)C[C@H]2O [cephalostatin 1] | 10^-7 to 10^-9 μg/mL | – | – | – | – |
| CC1[C@@H]2CC=C3C4CCC5Cc6nc7c(nc6C[C@@]5(C)C4CC(=O)[C@]32CO[C@@]1(O)C(O)CC(C)(C)O)CC1CCC2C3=C[C@H]4O[C@@]5(O[C@@](C)(CO)C[C@@H]5O)C(C)[C@@]4(O)[C@]3(C)[C@@H](O)CC2[C@]1(C)C7 (some centres unmarked) [Cephalostatin 9] | – | confirmed active level | powerful inhibitors of various human tumor cell lines | very strong and selective activity | confirmed active level |
